Each structure is given as a SMILES string. Structures can show the parent of a compound that is named as a salt. Where two headings read alike, the source gives them in different places. Bounds are passed on as bounds.

The text below walks through data of PMC4012445, “Spirocyclic Drimanes from the Marine Fungus Stachybotrys sp. Strain MF347” (Marine Drugs, 2014).

The subject of series [1] is Staphylococcus epidermidis (DSM 20044). The experiment in a line: Antibiotic activity against Staphylococcus epidermidis. The format is cell-based. The conditions noted are these: DSM20044, growth inhibition, 0.1–50 µM analyzed twice in duplicates, read-out: IC50, antibiotic activity, S. epidermidis.
Description: (§1) The antimicrobial activities of 1–13 against the bacterium Bacillus subtilis (DSM 347) and the human pathogenic yeast Candida albicans (DSM 1386) were determined according to Ohlendorf et al., 2012 [26].The bioassays using the clinically relevant bacterial strains Staphylococcus epidermidis (DSM 20044), the methicillin-resistant Staphylococcus aureus (MRSA) (DSM 18827), and Klebsiella pneumoniae DSM 30104 were performed as described by Silber et al., 2013 [27]. S. aureus and K. pneumoniae were investigated in the same manner as S. epidermidis. […] The concentration of the compounds used in the initial bioassays was 100 µM (antibiotic tests), 50 µM (cytotoxic tests), and 10 µM (enzymatic tests), respectively. […] Positive controls were carried out with chloramphenicol (bacteria), nystatin (yeast), clotrimazole (fungi), tamoxifen citrate (cell lines), rolipram (PDE-4B2), huperzine (AchE), and TDZD-8 (GSK-3β).
Series [2] deals with Bacillus subtilis (DSM 347). Briefly: Antibiotic activity against Bacillus subtilis. The format is cell-based. Particulars: DSM347, growth inhibition, 0.1–50 µM analyzed twice in duplicates, read-out: IC50, antibiotic activity, B. subtilis.
Description: as §1
Series [3] concerns methicillin-resistant Staphylococcus aureus (MRSA) (DSM 18827). Briefly: Antibiotic activity against methicillin-resistant Staphylococcus aureus. The format is cell-based. Particulars: read-out: IC50, S. aureus MRSA.
Description: as §1
Series [4] is described as follows: Cytotoxic activity against NIH-3T3. The format is cell-based.
Description: The concentration of the compounds used in the initial bioassays was 100 µM (antibiotic tests), 50 µM (cytotoxic tests), and 10 µM (enzymatic tests), respectively. […] Positive controls were carried out with chloramphenicol (bacteria), nystatin (yeast), clotrimazole (fungi), tamoxifen citrate (cell lines), rolipram (PDE-4B2), huperzine (AchE), and TDZD-8 (GSK-3β).
The mark [5] stands for this setting: human, HepG2 hepatocellular carcinoma cells.
The mark [6] stands for this setting: growth inhibition, 0.1–50 µM analyzed twice in duplicates.
Where [7] appears, read: NIH-3T3 fibroblast cells, mouse fibroblasts cell line, 0.1–50 µM analyzed twice in duplicates, read-out: IC50, cytotoxic activity, NIH-3T3.

For `O=C(N[C@H](CO)[C@H](O)c1ccc([N+](=O)[O-])cc1)C(Cl)Cl` [Chloramphenicol, chloramphenicol, reference compound], the IC50 (commonly the point on the concentration scale where inhibition reaches its midpoint) in series [1] was 1810 nM; in series [2], 1450 nM; in series [3], 2460 nM.

With `CC1CCC2C(C)(C)C(O)CCC2(C)C12Cc1c(O)cc3c(c1O2)CN(C1OCc2cc(O)c4c(c21)OC1(C4)C(C)CCC2C(C)(C)C(O)CCC21C)C3=O` (stereo not shown) [Compound 2, stachyin B], the IC50 in series [1] stood at 1020 nM; in series [2], 1420 nM; in “in vitro” (setting [5]), 14.3 µM; in series [3] (setting [6]) it was 1750 nM; in series [4] (setting [7]), 13 µM.

Regarding `C[C@H]1CC[C@@H]2C(C)(C)[C@@H](O)[C@H](O)C[C@@]2(C)[C@]12Cc1c(O)cc3c(c1O2)CN(CCCCC(C(=O)O)N1Cc2c(cc(O)c4c2O[C@@]2(C4)[C@@H](C)CC[C@@H]4C(C)(C)[C@@H](O)[C@@H](O)C[C@]42C)C1=O)C3=O` (stereo partly shown) [Compound 11, stachybocin B], the IC50 is 4440 nM in series [1]; 1770 nM in series [2]; > 50 µM in “in vitro” (setting [5]); 3940 nM in series [3] (setting [6]); > 50 µM in series [4] (setting [7]).

Turning to `C[C@H]1CC[C@@H]2C(C)(C)[C@@H](O)CC[C@@]2(C)[C@]12Cc1c(O)cc3c(c1O2)CN(CCCCC(C(=O)O)N1Cc2c(cc(O)c4c2O[C@@]2(C4)[C@@H](C)CC[C@@H]4C(C)(C)[C@@H](O)CC[C@]42C)C1=O)C3=O` (stereo partly shown) [Compound 12, stachybocin A], the IC50 in series [1] is 2840 nM; in series [2], 2030 nM; in the series “in vitro” it was > 50 µM; in series [3], 3710 nM; in series [4] (mouse fibroblasts cell line, 0.1–50 µM analyzed twice in duplicates, read-out: IC50, cytotoxic activity, NIH-3T3), > 50 µM.

In the case of `CC(C)=CCC/C(C)=C/CC/C(C)=C/Cc1c(O)cc(C)c(C=O)c1O` [Compound 13, ilicicolin B], the concentration for half-maximal inhibition (IC50) in series [1] is 3180 nM; in series [2], 1060 nM; in “in vitro” (setting [5]), > 50 µM; in series [3] (setting [6]), 740 nM; in series [4] (setting [7]), 30 µM.

As to `CC/C(=C(\c1ccccc1)c1ccc(OCCN(C)C)cc1)c1ccccc1` [tamoxifen citrate, reference compound], the figures for the IC50 (in the series “in vitro” (human); in series [4] (mouse)) were 17.9 µM and 16.4 µM, respectively.
